Results taken from patent US4048299A, “Anticaries confectionaries and oral health products” (William Wrigley, Jr. Co., priority 1970, dated 1977).

Legend:
[1] = In vivo caries evaluation, Osborne-Mendel strain 1 rat; design: species or system rat (Osborne-Mendel strain 1); Caries Score, Mean Incidence / Caries Score, Mean Extent: scale not given here; details: Table I, 90 days; for Caries Score, Mean Incidence / Caries Score, Mean Extent: 1 percent in diet; for Caries Score, Mean Incidence: RCD control 23.3 (pyruvaldehyde test), 12.85 (glycolaldehyde test); for Caries Score, Mean Extent: RCD control 64.8 (pyruvaldehyde test), 35.45 (glycolaldehyde test); for Caries Extent Reduction, statistical evaluation / Caries Incidence Reduction, statistical evaluation: Student's test, 95 percent confidence limit
Description: (§1) Standard laboratory techniques were used to complie the data presented. In each case the aldehyde was incorporated into each specimen's food in a one percent, by weight, quantity, over a period of several weeks. In all cases, caries reduction was noted.
(§2) The aldehydes tested in vivo were pyruvaldehyde, d,1-glyceraldehyde, crystalline dimer, glycolaldehyde, octanaldehyde, nonanaldehyde, decanaldehyde, undecylenic aldehyde, and lauric aldehyde. The polyaldehydes tested were dialdehyde starch, dialdehyde starch 50 percent oxidized, dialdehyde starch 90 percent oxidized, and dialdehyde galactomannan gum.
^(a) Agents were incorporated in the diet at a 1 percent level.

[2] = tested on: Lactobacillus casei ATCC 4646; assay: Acid production inhibition by aldehydes in product vehicles, broth-tube technique; type: cell-based; details: 1 to 5 percent aldehyde
[3] = tested on: Lactobacillus casei ATCC 4646; assay: Growth inhibition by aldehydes in product vehicles, pour-plate technique; type: cell-based; details: 1 to 5 percent aldehyde
Summary of the method: (§3)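 Aldehydes (1 to 5 percent by weight) were formulated into syrups, candies, mouthwash, toothpaste or toothpowder, added directly or as aqueous extracts to medium without a carbon source mixed 1:1 with filter-sterilized human saliva. Sugar came from the product or added sucrose. Growth over up to 24 hours was read by pour-plate count.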

[4] = tested on: Mixed human oral microorganisms; assay: as above; type: cell-based; details: 1 to 5 percent aldehyde
Summary of the method: as §3

Streptococcus spp. KI-R = assay: as above; type: cell-based; details: 1 to 5 percent aldehyde
Summary of the method: as §3

[5] = In vivo caries evaluation, laboratory animals (summary); details: one percent level in diet
Description: as §1, §2

oral microorganisms = assay: Acid production inhibition in vitro (summary); type: cell-based; details: in words, summary of tables
Procedure: Other in vitro evaluations utilized a broth tube analysis of representative anticaries aldehydes incorporated in the vehicles of this invention against cultures of acid producing microorganisms normally present in the mouth. Standard laboratory procedures were utilized throughout to evaluate the acid production inhibition and growth inhibition over the incubation time of up to 24 hours.

Streptococcus sp. FA-1 = assay: Acid production inhibition, broth-tube technique; details: single agent
Description: (§4) The data was compiled through well-known broth tube analysis techniques.
(a)Measured by broth-tube technique.

Lactobacillus casei = assay: Acid production inhibition, broth-tube technique; details: single agent
Description: as §4
(a)Measured by broth-tube technique.

[6] = in compressed candy tablet, 2 h incubation
[7] = in compressed candy tablet, 5 h incubation
[8] = in compressed candy tablet, 24 h incubation
[9] = in dextrose syrup, 2 h incubation
[10] = in dextrose syrup, 5 h incubation
[11] = in dextrose syrup, 24 h incubation
[12] = in sucrose syrup, 2 h incubation
[13] = in sucrose syrup, 5 h incubation
[14] = in sucrose syrup, 24 h incubation
[15] = in tooth powder (aqueous extract), 2 h incubation
[16] = in tooth powder (aqueous extract), 5 h incubation
[17] = in tooth powder (aqueous extract), 24 h incubation
[18] = in toothpaste (aqueous extract), 2 h incubation
[19] = in toothpaste (aqueous extract), 5 h incubation
[20] = in toothpaste (aqueous extract), 24 h incubation

CC(=O)C=O [Pyruvaldehyde]
Caries Score, Mean Incidence [1]: 8.6 | Caries Score, Mean Extent [1]: 21.7 | Caries Extent Reduction, statistical evaluation [1]: Significant | Caries Incidence Reduction, statistical evaluation [1]: Significant | Acid Production Inhibition [2, 6]: 0 Per Cent | Acid Production Inhibition [2, 7]: 0 Per Cent | Acid Production Inhibition [2, 8]: 75 Per Cent | Acid Production Inhibition [2, 9]: 52 Per Cent | Acid Production Inhibition [2, 10]: 33 Per Cent | Acid Production Inhibition [2, 11]: 88 Per Cent | Acid Production Inhibition ([2]; in hard candy, 2 h incubation): 0 Per Cent | Acid Production Inhibition ([2]; in hard candy, 5 h incubation): 22 Per Cent | Acid Production Inhibition ([2]; in hard candy, 24 h incubation): 90 Per Cent | Acid Production Inhibition [2, 12]: 0 Per cent | Acid Production Inhibition [2, 13]: 20.0 Per cent | Acid Production Inhibition [2, 14]: 89.6 Per cent | Acid Production Inhibition [2, 15]: 0 Per cent | Acid Production Inhibition [2, 16]: 0 Per cent | Acid Production Inhibition [2, 17]: 71 Per cent | Acid Production Inhibition [2, 18]: 0 Per cent | Acid Production Inhibition [2, 19]: 0 Per cent | Acid Production Inhibition [2, 20]: 0 Per cent | Growth Inhibition [3, 6]: 99.5 Per Cent | Growth Inhibition [3, 7]: 100 Per Cent | Growth Inhibition [3, 8]: 100 Per Cent | Growth Inhibition [3, 9]: 99.4 Per Cent | Growth Inhibition [3, 10]: 99.99 Per Cent | Growth Inhibition [3, 11]: 100 Per Cent | Growth Inhibition ([3]; in hard candy, 2 h incubation): 92 Per Cent | Growth Inhibition ([3]; in hard candy, 5 h incubation): 99.85 Per Cent | Growth Inhibition ([3]; in hard candy, 24 h incubation): 100 Per Cent | Growth Inhibition [3, 12]: 97.5 Per cent | Growth Inhibition [3, 13]: > 99.99 Per cent | Growth Inhibition [3, 14]: > 99.99 Per cent | Growth Inhibition [3, 15]: N.S. | Growth Inhibition [3, 16]: 98 Per cent | Growth Inhibition [3, 17]: 100 Per cent | Growth Inhibition [3, 18]: N.S. | Growth Inhibition [3, 19]: N.S. | Growth Inhibition [3, 20]: 100 Per cent | Growth Inhibition [4, 6]: 99.7 Per Cent | Growth Inhibition [4, 7]: 99.99 Per Cent | Growth Inhibition [4, 8]: 99.98 Per Cent | Growth Inhibition [4, 9]: 99.8 Per Cent | Growth Inhibition [4, 10]: 100 Per Cent | Growth Inhibition [4, 11]: 99.99 Per Cent | Growth Inhibition ([4]; in hard candy, 2 h incubation): 99.5 Per Cent | Growth Inhibition ([4]; in hard candy, 5 h incubation): 100 Per Cent | Growth Inhibition ([4]; in hard candy, 24 h incubation): N.S. | Growth Inhibition ([4]; in mouthwash, 2 h incubation): 99.0 Per cent | Growth Inhibition ([4]; in mouthwash, 5 h incubation): 100 Per cent | Growth Inhibition ([4]; in mouthwash, 24 h incubation): 99.7 Per cent | Growth Inhibition [4, 12]: > 99.9 Per cent | Growth Inhibition [4, 13]: > 99.99 Per cent | Growth Inhibition [4, 14]: N.S. | Growth Inhibition [4, 15]: N.S. | Growth Inhibition [4, 16]: 99.99 Per cent | Growth Inhibition [4, 17]: 99.94 Per cent | Growth Inhibition [4, 18]: 100 Per cent | Growth Inhibition [4, 19]: N.S. | Growth Inhibition [4, 20]: 100 Per cent | Growth Inhibition (Streptococcus spp. KI-R; [6]): N.S. | Growth Inhibition (Streptococcus spp. KI-R; [7]): N.S. | Growth Inhibition (Streptococcus spp. KI-R; [8]): N.S. | Growth Inhibition (Streptococcus spp. KI-R; [9]): 100 Per Cent | Growth Inhibition (Streptococcus spp. KI-R; [10]): 100 Per Cent | Growth Inhibition (Streptococcus spp. KI-R; [11]): 100 Per Cent | Growth Inhibition (Streptococcus spp. KI-R; in hard candy, 2 h incubation): > 99.99 Per Cent | Growth Inhibition (Streptococcus spp. KI-R; in hard candy, 5 h incubation): > 99.99 Per Cent | Growth Inhibition (Streptococcus spp. KI-R; in hard candy, 24 h incubation): 100 Per Cent | Growth Inhibition (Streptococcus spp. KI-R; in mouthwash, 2 h incubation): > 99.99 Per cent | Growth Inhibition (Streptococcus spp. KI-R; in mouthwash, 5 h incubation): > 99.99 Per cent | Growth Inhibition (Streptococcus spp. KI-R; in mouthwash, 24 h incubation): 100 Per cent | Growth Inhibition (Streptococcus spp. KI-R; [12]): > 99.9 Per cent | Growth Inhibition (Streptococcus spp. KI-R; [13]): > 99.99 Per cent | Growth Inhibition (Streptococcus spp. KI-R; [14]): 100 Per cent | Growth Inhibition (Streptococcus spp. KI-R; [15]): 100 Per cent | Growth Inhibition (Streptococcus spp. KI-R; [16]): 100 Per cent | Growth Inhibition (Streptococcus spp. KI-R; [17]): 100 Per cent | Growth Inhibition (Streptococcus spp. KI-R; [18]): N.S. | Growth Inhibition (Streptococcus spp. KI-R; [19]): N.S. | Growth Inhibition (Streptococcus spp. KI-R; [20]): N.S. | Anticaries effect in laboratory animals [5]: significant anticaries effects | Acid Production Inhibition (oral microorganisms): excellent acid production inhibition | Acid Production Inhibition (Streptococcus sp. FA-1; 0.001 percent): 10% | Acid Production Inhibition (Streptococcus sp. FA-1; 0.002 percent): 35% | Acid Production Inhibition (Lactobacillus casei; 0.005 percent): 24% | Acid Production Inhibition (Lactobacillus casei; 0.0075 percent): 57%

O=CCO [Glycolaldehyde]
Caries Score, Mean Incidence [1]: 5.53 | Caries Score, Mean Extent [1]: 13.19 | Caries Extent Reduction, statistical evaluation [1]: Significant | Caries Incidence Reduction, statistical evaluation [1]: Significant | Acid Production Inhibition [2, 6]: 0 Per Cent | Acid Production Inhibition [2, 7]: 0 Per Cent | Acid Production Inhibition [2, 8]: 64 Per Cent | Acid Production Inhibition [2, 9]: 33 Per Cent | Acid Production Inhibition [2, 10]: 3 Per Cent | Acid Production Inhibition [2, 11]: 85 Per Cent | Acid Production Inhibition [2, 12]: 0 Per cent | Acid Production Inhibition [2, 13]: 0 Per cent | Acid Production Inhibition [2, 14]: 86 Per cent | Acid Production Inhibition [2, 15]: 0 Per cent | Acid Production Inhibition [2, 16]: 0 Per cent | Acid Production Inhibition [2, 17]: 73 Per cent | Acid Production Inhibition [2, 18]: 0 Per cent | Acid Production Inhibition [2, 19]: 0 Per cent | Acid Production Inhibition [2, 20]: 0 Per cent | Growth Inhibition [3, 6]: N.S. | Growth Inhibition [3, 7]: 97.3 Per Cent | Growth Inhibition [3, 8]: 100 Per Cent | Growth Inhibition [3, 9]: N.S. | Growth Inhibition [3, 10]: 98 Per Cent | Growth Inhibition [3, 11]: 100 Per Cent | Growth Inhibition [3, 12]: N.S. | Growth Inhibition [3, 13]: 93 Per cent | Growth Inhibition [3, 14]: > 99.99 Per cent | Growth Inhibition [3, 15]: N.S. | Growth Inhibition [3, 16]: N.S. | Growth Inhibition [3, 17]: 99.99 Per cent | Growth Inhibition [3, 18]: 0 Per cent | Growth Inhibition [3, 19]: N.S. | Growth Inhibition [3, 20]: 100 Per cent | Growth Inhibition [4, 6]: 99.3 Per Cent | Growth Inhibition [4, 7]: 100 Per Cent | Growth Inhibition [4, 8]: 100 Per Cent | Growth Inhibition [4, 9]: 99 Per Cent | Growth Inhibition [4, 10]: 100 Per Cent | Growth Inhibition [4, 11]: 91.4 Per Cent | Growth Inhibition ([4]; in mouthwash, 2 h incubation): 99.7 Per cent | Growth Inhibition ([4]; in mouthwash, 5 h incubation): 100 Per cent | Growth Inhibition ([4]; in mouthwash, 24 h incubation): 99.90 Per cent | Growth Inhibition [4, 12]: 98 Per cent | Growth Inhibition [4, 13]: > 99.99 Per cent | Growth Inhibition [4, 14]: > 99 Per cent | Growth Inhibition [4, 15]: N.S. | Growth Inhibition [4, 16]: 99.97 Per cent | Growth Inhibition [4, 17]: 100 Per cent | Growth Inhibition [4, 18]: N.S. | Growth Inhibition [4, 19]: N.S. | Growth Inhibition [4, 20]: 100 Per cent | Growth Inhibition (Streptococcus spp. KI-R; [6]): 99.9 Per Cent | Growth Inhibition (Streptococcus spp. KI-R; [7]): N.S. | Growth Inhibition (Streptococcus spp. KI-R; [8]): N.S. | Growth Inhibition (Streptococcus spp. KI-R; [9]): 99.1 Per Cent | Growth Inhibition (Streptococcus spp. KI-R; [10]): 100 Per Cent | Growth Inhibition (Streptococcus spp. KI-R; [11]): 100 Per Cent | Growth Inhibition (Streptococcus spp. KI-R; in mouthwash, 2 h incubation): 99.98 Per cent | Growth Inhibition (Streptococcus spp. KI-R; in mouthwash, 5 h incubation): 100 Per cent | Growth Inhibition (Streptococcus spp. KI-R; in mouthwash, 24 h incubation): 100 Per cent | Growth Inhibition (Streptococcus spp. KI-R; [12]): 80 Per cent | Growth Inhibition (Streptococcus spp. KI-R; [13]): > 99.9 Per cent | Growth Inhibition (Streptococcus spp. KI-R; [14]): > 99.99 Per cent | Growth Inhibition (Streptococcus spp. KI-R; [15]): N.S. | Growth Inhibition (Streptococcus spp. KI-R; [16]): 93.3 Per cent | Growth Inhibition (Streptococcus spp. KI-R; [17]): 100 Per cent | Growth Inhibition (Streptococcus spp. KI-R; [18]): 0 Per cent | Growth Inhibition (Streptococcus spp. KI-R; [19]): N.S. | Growth Inhibition (Streptococcus spp. KI-R; [20]): N.S. | Anticaries effect in laboratory animals [5]: significant anticaries effects | Acid Production Inhibition (oral microorganisms): excellent acid production inhibition | Acid Production Inhibition (Streptococcus sp. FA-1; 0.02 percent): 19% | Acid Production Inhibition (Streptococcus sp. FA-1; 0.03 percent): 39% | Acid Production Inhibition (Streptococcus sp. FA-1; 0.04 percent): 72% | Acid Production Inhibition (Lactobacillus casei; 0.02 percent): 18% | Acid Production Inhibition (Lactobacillus casei; 0.025 percent): 23% | Acid Production Inhibition (Lactobacillus casei; 0.03 percent): 27%
